Assay results published in the NIST ThermoML archive (doi:10.1016/j.tca.2013.08.031).

Experiment: molar heat capacity at constant volume
Conditions: Fluid (supercritical or subcritical phases), Vacuum adiabatic calorimetry

CCC(C)O (stereo unspecified) [butan-2-ol]
Conditions	molar heat capacity at constant volume [J/K/mol]
513.55 K, Mass density=474.07 kg/m3	293.52
513.74 K, Mass density=95.93 kg/m3	641.3
513.74 K, Mass density=474.07 kg/m3	293.52
513.92 K, Mass density=95.93 kg/m3	638.11
513.92 K, Mass density=474.07 kg/m3	295
514.11 K, Mass density=95.93 kg/m3	635.74
514.11 K, Mass density=474.07 kg/m3	289.82
514.3 K, Mass density=95.93 kg/m3	627.59
514.3 K, Mass density=474.07 kg/m3	283.14
514.48 K, Mass density=95.93 kg/m3	308.72
514.48 K, Mass density=474.07 kg/m3	295.75
514.67 K, Mass density=95.93 kg/m3	252.53
514.67 K, Mass density=474.07 kg/m3	285.37
514.86 K, Mass density=95.93 kg/m3	246.31
514.86 K, Mass density=474.07 kg/m3	291.3
515.04 K, Mass density=95.93 kg/m3	265.58
515.04 K, Mass density=474.07 kg/m3	286.85
515.23 K, Mass density=95.93 kg/m3	271.43
515.23 K, Mass density=474.07 kg/m3	240.9
515.42 K, Mass density=95.93 kg/m3	276.47
515.42 K, Mass density=474.07 kg/m3	230.52
515.6 K, Mass density=474.07 kg/m3	230.52
515.79 K, Mass density=95.93 kg/m3	198.72
515.79 K, Mass density=474.07 kg/m3	229.04
515.98 K, Mass density=95.93 kg/m3	206.28
515.98 K, Mass density=474.07 kg/m3	232.74
516.16 K, Mass density=95.93 kg/m3	200.65
516.35 K, Mass density=95.93 kg/m3	215.69
516.53 K, Mass density=95.93 kg/m3	229.41
516.53 K, Mass density=403.55 kg/m3	311.31
516.53 K, Mass density=474.07 kg/m3	220.14
516.72 K, Mass density=95.93 kg/m3	228.07
516.72 K, Mass density=403.55 kg/m3	309.83
516.72 K, Mass density=474.07 kg/m3	223.11
516.91 K, Mass density=95.93 kg/m3	243.71
516.91 K, Mass density=403.55 kg/m3	312.79
516.91 K, Mass density=474.07 kg/m3	221.62
516.91 K, Mass density=538.17 kg/m3	212.88
517.09 K, Mass density=95.93 kg/m3	203.61
517.09 K, Mass density=403.55 kg/m3	309.09
517.09 K, Mass density=474.07 kg/m3	222.36
517.09 K, Mass density=538.17 kg/m3	213.84
517.28 K, Mass density=95.93 kg/m3	224.96
517.28 K, Mass density=403.55 kg/m3	310.57
517.28 K, Mass density=538.17 kg/m3	214.06
517.47 K, Mass density=403.55 kg/m3	313.53
517.65 K, Mass density=403.55 kg/m3	309.09
520.44 K, Mass density=117 kg/m3	740.77
520.63 K, Mass density=117 kg/m3	732.54
520.81 K, Mass density=117 kg/m3	737.95
521 K, Mass density=117 kg/m3	726.1
521.18 K, Mass density=117 kg/m3	734.77
521.37 K, Mass density=117 kg/m3	723.58
521.55 K, Mass density=117 kg/m3	728.69
521.74 K, Mass density=117 kg/m3	715.2
521.74 K, Mass density=142.27 kg/m3	509.66
521.92 K, Mass density=117 kg/m3	709.42
521.92 K, Mass density=142.27 kg/m3	517.74
522.11 K, Mass density=117 kg/m3	639
522.11 K, Mass density=142.27 kg/m3	522.71
522.13 K, Mass density=117 kg/m3	606.09
522.15 K, Mass density=117 kg/m3	603.42
522.16 K, Mass density=117 kg/m3	599.35
522.18 K, Mass density=117 kg/m3	590.9
522.2 K, Mass density=117 kg/m3	590.9
522.22 K, Mass density=117 kg/m3	505.14
522.24 K, Mass density=117 kg/m3	408.41
522.26 K, Mass density=117 kg/m3	318.13
522.28 K, Mass density=117 kg/m3	304.49
522.3 K, Mass density=117 kg/m3	309.61
522.3 K, Mass density=142.27 kg/m3	521.45
522.31 K, Mass density=117 kg/m3	308.86
522.33 K, Mass density=117 kg/m3	298.12
522.35 K, Mass density=117 kg/m3	289.44
522.37 K, Mass density=117 kg/m3	280.77
522.39 K, Mass density=117 kg/m3	260.54
522.4 K, Mass density=117 kg/m3	247.05
522.42 K, Mass density=117 kg/m3	241.56
522.44 K, Mass density=117 kg/m3	241.56
522.46 K, Mass density=117 kg/m3	222.29
522.48 K, Mass density=117 kg/m3	221.62
522.48 K, Mass density=142.27 kg/m3	530.71
522.67 K, Mass density=117 kg/m3	241.78
522.67 K, Mass density=142.27 kg/m3	535.45
522.85 K, Mass density=117 kg/m3	245.27
522.85 K, Mass density=142.27 kg/m3	540.12
523.04 K, Mass density=117 kg/m3	242.75
523.04 K, Mass density=142.27 kg/m3	544.87
523.22 K, Mass density=117 kg/m3	224.14
523.22 K, Mass density=142.27 kg/m3	528.41
523.41 K, Mass density=117 kg/m3	213.62
523.41 K, Mass density=142.27 kg/m3	530.64
523.59 K, Mass density=142.27 kg/m3	531.67
523.78 K, Mass density=142.27 kg/m3	532.34
524.33 K, Mass density=142.27 kg/m3	531.23
524.52 K, Mass density=142.27 kg/m3	529.97
524.7 K, Mass density=142.27 kg/m3	534.05
524.89 K, Mass density=142.27 kg/m3	531.45
525.07 K, Mass density=142.27 kg/m3	529.6
525.26 K, Mass density=142.27 kg/m3	530.41
525.44 K, Mass density=142.27 kg/m3	530.93
525.63 K, Mass density=142.27 kg/m3	531.82
525.81 K, Mass density=142.27 kg/m3	537.01
525.99 K, Mass density=142.27 kg/m3	538.94
527.1 K, Mass density=142.27 kg/m3	532.93
527.29 K, Mass density=142.27 kg/m3	536.64
